# In paper PMC2193054 (The Journal of Experimental Medicine, 1999):
# “And” between values parts separate entries of the source, which are not always exact repeats. Equal values may be shown once. Read-outs that look alike come from different tables or passages of the source. Marks after values point to notes of the source that are not given here.
# Assays:
# M. tuberculosis Erdman [1] = format: cell-based
# [2] = biological target: T1, E. coli glutamine synthetase (Escherichia coli, UniProt P0A9C5); format: biochemical, E. coli W
# T1 sequence (P0A9C5 2-469 limits assumed): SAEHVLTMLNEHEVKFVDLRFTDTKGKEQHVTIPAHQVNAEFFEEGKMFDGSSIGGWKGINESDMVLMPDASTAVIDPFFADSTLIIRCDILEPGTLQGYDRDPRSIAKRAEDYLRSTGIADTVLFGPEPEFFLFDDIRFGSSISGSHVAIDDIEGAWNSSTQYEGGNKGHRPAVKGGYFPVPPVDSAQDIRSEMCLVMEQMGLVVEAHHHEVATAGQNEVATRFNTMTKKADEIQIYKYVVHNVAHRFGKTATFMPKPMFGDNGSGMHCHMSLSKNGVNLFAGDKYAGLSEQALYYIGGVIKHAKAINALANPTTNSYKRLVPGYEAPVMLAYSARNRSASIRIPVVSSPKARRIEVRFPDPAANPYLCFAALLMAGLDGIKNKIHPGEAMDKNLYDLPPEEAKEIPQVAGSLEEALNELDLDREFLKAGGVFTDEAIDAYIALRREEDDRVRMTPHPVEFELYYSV
# [3] = biological target: T2, M. tuberculosis glutamine synthetase (Mycobacterium tuberculosis, UniProt P9WN39); format: biochemical, M. tuberculosis Erdman
# [4] = test system: sheep brain glutamine synthetase; format: biochemical
# M. tuberculosis = format: cell-based
# [5] = biological target: T2, M. tuberculosis glutamine synthetase; format: cell-based, M. tuberculosis (expressed in M. smegmatis); conditions: 200 μM
# [6] = test system: recombinant M. tuberculosis glutamine synthetase; format: cell-based, M. tuberculosis (expressed in M. smegmatis); conditions: 200 μM
# M. smegmatis = format: cell-based
# M. bovis = format: cell-based
# M. avium = format: cell-based
# M. bovis BCG = format: cell-based
# [7] = test system: γ-glutamylcysteine synthetase; conditions: in contrast to glutamine synthetase; cited from earlier work
# E. coli DH5α = format: cell-based; conditions: 6 h
# [8] = biological target: T2, M. tuberculosis glutamine synthetase; format: cell-based, M. tuberculosis Erdman
# [9] = test system: L. pneumophila Philadelphia 1; format: cell-based; conditions: 24 h
# M. phlei = format: cell-based; conditions: 3 d
# M. tuberculosis Erdman [10] = format: cell-based; remark: listed apart in the source
# [11] = test system: M. tuberculosis superoxide dismutase; format: cell-based; conditions: 20 μM
# M. tuberculosis H37Rv = format: cell-based
# M. avium (25291; ATCC) = format: cell-based
# T2 sequence (P9WN39 2-478): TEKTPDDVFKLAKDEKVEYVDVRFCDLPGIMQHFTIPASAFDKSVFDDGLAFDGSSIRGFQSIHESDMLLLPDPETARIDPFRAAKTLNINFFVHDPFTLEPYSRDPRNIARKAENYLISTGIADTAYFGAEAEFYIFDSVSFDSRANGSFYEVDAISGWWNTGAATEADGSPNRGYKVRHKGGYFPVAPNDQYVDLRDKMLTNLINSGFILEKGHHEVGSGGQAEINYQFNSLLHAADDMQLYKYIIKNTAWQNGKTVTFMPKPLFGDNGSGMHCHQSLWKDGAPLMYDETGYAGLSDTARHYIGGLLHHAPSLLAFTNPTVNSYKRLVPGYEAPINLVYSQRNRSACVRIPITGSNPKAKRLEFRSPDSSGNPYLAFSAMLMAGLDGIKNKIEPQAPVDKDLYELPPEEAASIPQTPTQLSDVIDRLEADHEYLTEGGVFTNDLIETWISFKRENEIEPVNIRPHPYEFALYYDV
structure (smiles),measurement,setting,value
"CP(=O)(O)CCC(N)C(=O)O (racemic) [D,L-phosphinothricin]",cell density lag behind uninhibited cultures,"M. tuberculosis Erdman [1]; 20, 200, 2,000 μM",0.5–1.5 log units
same,remaining enzyme activity (% of initial activity),[2]; 2 µM,< 10% and 3–10%
same,remaining enzyme activity (% of initial activity),[2]; 20 μM,≤ 0.5%
same,remaining enzyme activity (% of initial activity),[2]; 200 μM,≤ 0.5%
same,remaining enzyme activity (% of initial activity),[3]; 2 µM,< 10% and 3–10%
same,remaining enzyme activity (% of initial activity),[3]; 20 μM,≤ 0.5%
same,remaining enzyme activity (% of initial activity),[3]; 200 μM,≤ 0.5%
same,inactivation at the highest dose of inhibitor,[4],not completely inactivated
same,remaining enzyme activity (% of initial activity),[4],~25%
same,remaining enzyme activity (% of initial activity),[4]; 2 μM,60%
same,Ki,"[4]; read-out: Ki D,L-Ppt",16.4 µM
"NCC[C@H](O)C(=O)N[C@@H]1C[C@H](N)[C@@H](O[C@H]2O[C@H](CN)[C@@H](O)[C@H](O)[C@H]2O)[C@H](O)[C@H]1O[C@H]1O[C@H](CO)[C@@H](O)[C@H](N)[C@H]1O [Amikacin, amikacin]","influence on the content of either poly-L-glutamate/glutamine or D,L-alanine",M. tuberculosis,little influence
same,"D,L-Alanine",M. tuberculosis; 0.06 μg/ml,29.1 μg/10^10 Cells
same,Poly-L-Glutamate/glutamine,M. tuberculosis; 0.06 μg/ml,49.9 μg/10^10 Cells
same,"D,L-Alanine",M. tuberculosis; 0.25 μg/ml,26.3 μg/10^10 Cells
same,Poly-L-Glutamate/glutamine,M. tuberculosis; 0.25 μg/ml,43.2 μg/10^10 Cells
same,"D,L-Alanine",M. tuberculosis; 1 μg/ml,12.0^a μg/10^10 Cells
same,Poly-L-Glutamate/glutamine,M. tuberculosis; 1 μg/ml,26.0^a μg/10^10 Cells
CS(=N)(=O)CC[C@H](N)C(=O)O (stereo partly drawn) [L-methionine-S-sulfoximine],effect on cell growth,M. tuberculosis Erdman [1],blocked cell growth almost immediately
same,growth,M. tuberculosis Erdman [1],completely inhibited
same,growth lag behind uninhibited cultures with L-glutamine added,M. tuberculosis Erdman [1],0.4–1.3 log units
same,reversal of growth inhibition by L-glutamine,M. tuberculosis Erdman [1],almost complete
same,growth lag behind untreated control cultures,M. tuberculosis Erdman [1]; 0.2 μM,0.1–0.2 log units
same,growth plateau below that of control cultures,M. tuberculosis Erdman [1]; 2 μM,~2 log units
same,sensitivity of growth to the inhibitor,M. tuberculosis Erdman [1]; 0.2-200 μM,highly sensitive
same,decrease of extracellular glutamine synthetase activity of the recombinant strain,[5],89%
same,decrease of cell-associated glutamine synthetase activity (sum of endogenous and recombinant enzymes),[6],17%
same,"effect on morphology, doubling time, or viability",THP-1 human monocytes,no effect
same,growth rate of parent and recombinant M. smegmatis strain,M. smegmatis; 200 μM,unaffected
same,sensitivity of growth to the inhibitor,M. smegmatis; 3 d,insensitive
same,sensitivity of growth to the inhibitor,M. bovis,highly sensitive
same,sensitivity of growth to the inhibitor,M. avium,intermediate
same,sensitivity of growth to the inhibitor,M. bovis BCG,highly sensitive
same,nature of the inhibition of γ-glutamylcysteine synthetase,[7],reversible
same,remaining enzyme activity (% of initial activity),[2]; 2 µM,< 10% and 3–10%
same,remaining enzyme activity (% of initial activity),[2]; 20 μM,< 10%
same,remaining enzyme activity (% of initial activity),[2]; 200 μM,≤ 0.5%
same,"D,L-Alanine",M. tuberculosis; 0.2 μM,21.2 μg/10^10 Cells
same,Poly-L-Glutamate/glutamine,M. tuberculosis; 0.2 μM,18.2 μg/10^10 Cells
same,"D,L-Alanine",M. tuberculosis; 2 μM,17.7 μg/10^10 Cells
same,Poly-L-Glutamate/glutamine,M. tuberculosis; 2 μM,9.8 μg/10^10 Cells
same,"D,L-Alanine",M. tuberculosis; 20 μM,17.8 μg/10^10 Cells
same,Poly-L-Glutamate/glutamine,M. tuberculosis; 20 μM,6.1 μg/10^10 Cells
same,remaining enzyme activity (% of initial activity),[3]; 2 µM,< 10% and 3–10%
same,remaining enzyme activity (% of initial activity),[3]; 20 μM,< 10%
same,remaining enzyme activity (% of initial activity),[3]; 200 μM,≤ 0.5%
same,sensitivity of growth to the inhibitor,E. coli DH5α,insensitive
same,effect on the quantity of glutamine synthetase protein exported,[8],no detectable effect
same,cell-associated glutamine synthetase activity (plateau),[8]; 20 μM,~50 mU
same,decrease of cell-associated glutamine synthetase activity from the uninhibited level,[8]; 20 μM,14%
same,extracellular glutamine synthetase activity,[8]; 20 μM,~4.5 mU
same,reduction of extracellular glutamine synthetase activity from the uninhibited level,[8]; 20 μM,80%
same,sensitivity of growth to the inhibitor,[9],insensitive
same,sensitivity of growth to the inhibitor,M. phlei,insensitive
same,growth of intracellular bacteria,M. tuberculosis Erdman [10]; 2 μM,slowed
same,growth of intracellular bacteria,M. tuberculosis Erdman [10]; 200 μM,strongly inhibited
same,activity or quantity of extracellular superoxide dismutase compared with untreated cultures,[11],no reduction
same,sensitivity of growth to the inhibitor,M. tuberculosis H37Rv,highly sensitive
same,growth of intracellular bacteria,M. avium (25291; ATCC); 2 μM,uninhibited
same,growth of intracellular bacteria,M. avium (25291; ATCC); 200 μM,strongly inhibited
same,inactivation at the highest dose of inhibitor,[4],not completely inactivated
same,remaining enzyme activity (% of initial activity),[4]; 2 μM,~40%
same,Ki,[4]; read-out: Ki L-Ms,110 µM
"CO[C@H]1/C=C/O[C@@]2(C)Oc3c(C)c(O)c4c(O)c(c(/C=N/N5CCN(C)CC5)c(O)c4c3C2=O)NC(=O)/C(C)=C\C=C\[C@H](C)[C@H](O)[C@@H](C)[C@@H](O)[C@@H](C)[C@H](OC(C)=O)[C@@H]1C [Rifampin, rifampin]","influence on the content of either poly-L-glutamate/glutamine or D,L-alanine",M. tuberculosis,little influence
same,"D,L-Alanine",M. tuberculosis; 0.0125 μg/ml,23.6 μg/10^10 Cells
same,Poly-L-Glutamate/glutamine,M. tuberculosis; 0.0125 μg/ml,54.2 μg/10^10 Cells
same,"D,L-Alanine",M. tuberculosis; 0.05 μg/ml,25.1 μg/10^10 Cells
same,Poly-L-Glutamate/glutamine,M. tuberculosis; 0.05 μg/ml,41.6 μg/10^10 Cells
same,"D,L-Alanine",M. tuberculosis; 0.2 μg/ml,20.0^a μg/10^10 Cells
same,Poly-L-Glutamate/glutamine,M. tuberculosis; 0.2 μg/ml,40.0^a μg/10^10 Cells
same,effect on intracellular or extracellular glutamine synthetase activity,[8],negligible effect
CC[C@@H](CO)NCCN[C@@H](CC)CO [ethambutol],effect on intracellular or extracellular glutamine synthetase activity,[8],negligible effect
NNC(=O)c1ccncc1 [isoniazid],effect on intracellular or extracellular glutamine synthetase activity,[8],negligible effect
NC(=O)c1cnccn1 [pyrazinamide],effect on intracellular or extracellular glutamine synthetase activity,[8],negligible effect
